One block for each compound: values may come before it. Activity calls are given as the source filed them.
How the values were obtained:
[1] = system: Streptococcus sp. 'group A'; test: growth inhibition of control SK(-) GAS strain, dose response, counter-screen for streptokinase expression inhibitor project, luminescence, kanamycin, BacTiterGlo, confirmation (AID 1900); format: functional, organism-based
[2] = system: Streptococcus; test: Group A Streptococcus viability loss, dose response, counter-screen for streptokinase expression inhibitor project, luminescence, BacTiterGlo (AID 1915); format: functional, organism-based;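 note: potency for reduction of bacterial viability or growth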
[3] = THP-1 cell cytotoxicity, dose response, cytotoxicity control for Vif-APOBEC3G degradation inhibitor project, THP-1 cells (AID 1117359); format: functional; settings: Human immunodeficiency virus 1, THP-1
[4] = target: T1, High affinity choline transporter 1 (Homo sapiens, UniProt Q9GZV3); test: CHT inhibitors, dose response, cell-based, 5-point CRC, membrane potential dye (AID 504840); format: functional
T1 sequence (Q9GZV3 whole entry): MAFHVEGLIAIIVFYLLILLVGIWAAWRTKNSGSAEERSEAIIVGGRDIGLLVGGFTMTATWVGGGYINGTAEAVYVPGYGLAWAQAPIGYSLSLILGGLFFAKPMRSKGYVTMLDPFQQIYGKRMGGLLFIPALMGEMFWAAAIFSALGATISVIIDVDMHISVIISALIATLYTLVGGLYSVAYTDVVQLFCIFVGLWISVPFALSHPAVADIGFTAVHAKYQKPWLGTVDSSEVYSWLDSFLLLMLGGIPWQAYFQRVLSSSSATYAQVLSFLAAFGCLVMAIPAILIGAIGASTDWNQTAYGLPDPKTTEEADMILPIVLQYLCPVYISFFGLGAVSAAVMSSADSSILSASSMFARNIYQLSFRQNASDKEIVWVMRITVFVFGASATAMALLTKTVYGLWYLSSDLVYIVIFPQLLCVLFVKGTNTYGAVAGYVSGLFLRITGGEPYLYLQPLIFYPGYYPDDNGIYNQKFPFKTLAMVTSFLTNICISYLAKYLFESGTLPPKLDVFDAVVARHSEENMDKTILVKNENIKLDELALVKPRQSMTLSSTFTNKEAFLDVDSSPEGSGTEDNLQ

[5] = target: Cytochrome P450 3A4 (Homo sapiens, UniProt P08684); settings: Potency;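 note: confirmatory qHTS run detecting inhibitors and substrates of CYP3A4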
[6] = target: T2, Aminopeptidase N (Plasmodium falciparum FcB1/Columbia, UniProt O96935); test: P. falciparum M1AAP inhibitors, biochemical, fluorogenic H-Leu-NHMec substrate, 1536-well (AID 1445); design: species or system Plasmodium falciparum 3D7, 3D7
T2 sequence (O96935 whole entry): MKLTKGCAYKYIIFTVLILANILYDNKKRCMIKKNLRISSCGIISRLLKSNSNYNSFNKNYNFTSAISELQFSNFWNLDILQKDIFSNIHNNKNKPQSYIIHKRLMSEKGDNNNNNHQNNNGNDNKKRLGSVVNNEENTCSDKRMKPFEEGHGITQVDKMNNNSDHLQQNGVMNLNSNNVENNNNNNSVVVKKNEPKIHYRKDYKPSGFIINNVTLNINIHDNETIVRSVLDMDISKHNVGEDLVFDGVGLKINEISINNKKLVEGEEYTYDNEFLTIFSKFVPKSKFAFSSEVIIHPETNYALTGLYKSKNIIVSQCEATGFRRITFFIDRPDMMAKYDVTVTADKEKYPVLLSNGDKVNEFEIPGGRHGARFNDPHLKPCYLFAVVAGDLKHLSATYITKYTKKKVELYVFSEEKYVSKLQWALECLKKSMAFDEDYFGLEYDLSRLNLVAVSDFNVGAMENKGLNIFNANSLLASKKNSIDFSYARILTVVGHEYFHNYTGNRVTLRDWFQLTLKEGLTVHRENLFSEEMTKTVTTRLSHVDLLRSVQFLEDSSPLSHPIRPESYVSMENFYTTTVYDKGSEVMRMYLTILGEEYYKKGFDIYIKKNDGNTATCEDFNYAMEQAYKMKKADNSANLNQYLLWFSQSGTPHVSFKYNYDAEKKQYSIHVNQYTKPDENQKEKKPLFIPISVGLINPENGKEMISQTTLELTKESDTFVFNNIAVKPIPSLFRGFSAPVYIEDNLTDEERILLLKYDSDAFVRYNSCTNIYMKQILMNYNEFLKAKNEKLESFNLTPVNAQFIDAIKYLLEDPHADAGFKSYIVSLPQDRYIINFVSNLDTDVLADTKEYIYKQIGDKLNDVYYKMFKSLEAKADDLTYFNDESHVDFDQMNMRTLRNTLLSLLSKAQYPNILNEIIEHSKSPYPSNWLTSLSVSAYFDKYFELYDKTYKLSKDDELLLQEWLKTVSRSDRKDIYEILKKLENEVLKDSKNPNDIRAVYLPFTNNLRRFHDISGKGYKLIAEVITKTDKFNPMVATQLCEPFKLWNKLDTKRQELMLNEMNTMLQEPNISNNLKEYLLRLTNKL

[7] = target: Genome polyprotein (dengue virus type 2, UniProt P29990); test: Dengue-2 NS5 methyltransferase inhibitors, primary screen, biochemical, confirmation dose response (AID 588689); format: functional
[8] = target: T3, Heat shock factor protein 1 (Mus musculus, UniProt P38532); test: inhibition of MG132-induced HSE-luciferase signal, confirmation, cell-based, NIH3T3, luminescence, dose retest (AID 2382); format: functional;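 note: NIH3T3 fibroblasts with HSF1-driven luciferase reporter stressed by proteasome inhibitor MG132; luminescence from HSF1-driven luciferase expression after 8 hours of MG132 stress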
T3 sequence (P38532 whole entry): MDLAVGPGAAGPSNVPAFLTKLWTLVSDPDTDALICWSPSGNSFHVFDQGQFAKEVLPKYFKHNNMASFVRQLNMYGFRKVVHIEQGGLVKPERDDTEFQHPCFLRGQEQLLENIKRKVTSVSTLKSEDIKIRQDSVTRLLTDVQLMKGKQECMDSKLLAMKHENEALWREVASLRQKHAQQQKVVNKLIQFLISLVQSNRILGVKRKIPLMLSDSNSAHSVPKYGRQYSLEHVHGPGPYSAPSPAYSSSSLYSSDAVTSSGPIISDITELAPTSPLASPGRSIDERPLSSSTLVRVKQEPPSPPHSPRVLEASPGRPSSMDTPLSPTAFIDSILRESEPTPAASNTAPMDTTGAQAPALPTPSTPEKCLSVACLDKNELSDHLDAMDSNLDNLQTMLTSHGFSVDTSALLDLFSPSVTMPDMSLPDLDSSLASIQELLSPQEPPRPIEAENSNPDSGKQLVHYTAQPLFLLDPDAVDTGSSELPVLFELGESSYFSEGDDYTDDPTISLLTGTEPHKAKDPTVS

[9] = target: Induced myeloid leukemia cell differentiation protein Mcl-1 (Homo sapiens, UniProt Q07820); format: functional
[10] = target: T4, Carboxy-terminal domain RNA polymerase II polypeptide A small phosphatase 1 (Homo sapiens, UniProt Q9GZU7); test: inhibitors of CTDSP1, concentration-response testing, biochemical assay, absorbance-based, actives from ultra-high-throughput screening (AID 540297); format: functional
T4 sequence (Q9GZU7 whole entry): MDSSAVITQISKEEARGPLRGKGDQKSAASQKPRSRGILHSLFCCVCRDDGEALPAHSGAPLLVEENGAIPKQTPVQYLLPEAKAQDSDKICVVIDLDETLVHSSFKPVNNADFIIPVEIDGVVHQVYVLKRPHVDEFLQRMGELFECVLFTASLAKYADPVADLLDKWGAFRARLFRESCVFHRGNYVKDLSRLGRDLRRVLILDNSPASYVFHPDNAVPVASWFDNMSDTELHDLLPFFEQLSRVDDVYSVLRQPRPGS

Cytochrome P450 3A4, sequence (P08684 whole entry): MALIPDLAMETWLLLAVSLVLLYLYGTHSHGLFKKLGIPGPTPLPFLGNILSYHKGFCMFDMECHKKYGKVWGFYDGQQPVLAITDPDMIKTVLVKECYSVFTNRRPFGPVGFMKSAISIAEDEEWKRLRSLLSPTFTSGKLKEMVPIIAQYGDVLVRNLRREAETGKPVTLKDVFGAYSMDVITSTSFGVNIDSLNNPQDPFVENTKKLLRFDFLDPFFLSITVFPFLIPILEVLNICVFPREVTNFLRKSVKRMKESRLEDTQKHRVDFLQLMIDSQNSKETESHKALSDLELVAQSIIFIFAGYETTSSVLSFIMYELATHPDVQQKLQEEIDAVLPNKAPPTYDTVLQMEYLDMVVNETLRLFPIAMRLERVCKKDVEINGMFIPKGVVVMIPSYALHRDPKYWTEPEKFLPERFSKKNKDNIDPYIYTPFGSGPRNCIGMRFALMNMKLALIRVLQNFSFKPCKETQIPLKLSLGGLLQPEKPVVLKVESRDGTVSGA
Induced myeloid leukemia cell differentiation protein Mcl-1, sequence (Q07820 whole entry, the tested form may be a part): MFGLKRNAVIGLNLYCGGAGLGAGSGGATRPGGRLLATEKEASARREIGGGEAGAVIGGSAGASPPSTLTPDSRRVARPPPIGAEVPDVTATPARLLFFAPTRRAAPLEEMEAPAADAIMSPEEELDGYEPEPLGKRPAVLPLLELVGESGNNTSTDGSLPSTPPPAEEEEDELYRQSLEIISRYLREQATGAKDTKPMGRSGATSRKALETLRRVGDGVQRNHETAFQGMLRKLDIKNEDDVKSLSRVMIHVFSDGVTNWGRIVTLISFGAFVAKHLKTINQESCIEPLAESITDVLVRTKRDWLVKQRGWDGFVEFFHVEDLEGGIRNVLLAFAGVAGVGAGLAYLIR
Genome polyprotein, sequence (P29990 2492-3391 limits assumed): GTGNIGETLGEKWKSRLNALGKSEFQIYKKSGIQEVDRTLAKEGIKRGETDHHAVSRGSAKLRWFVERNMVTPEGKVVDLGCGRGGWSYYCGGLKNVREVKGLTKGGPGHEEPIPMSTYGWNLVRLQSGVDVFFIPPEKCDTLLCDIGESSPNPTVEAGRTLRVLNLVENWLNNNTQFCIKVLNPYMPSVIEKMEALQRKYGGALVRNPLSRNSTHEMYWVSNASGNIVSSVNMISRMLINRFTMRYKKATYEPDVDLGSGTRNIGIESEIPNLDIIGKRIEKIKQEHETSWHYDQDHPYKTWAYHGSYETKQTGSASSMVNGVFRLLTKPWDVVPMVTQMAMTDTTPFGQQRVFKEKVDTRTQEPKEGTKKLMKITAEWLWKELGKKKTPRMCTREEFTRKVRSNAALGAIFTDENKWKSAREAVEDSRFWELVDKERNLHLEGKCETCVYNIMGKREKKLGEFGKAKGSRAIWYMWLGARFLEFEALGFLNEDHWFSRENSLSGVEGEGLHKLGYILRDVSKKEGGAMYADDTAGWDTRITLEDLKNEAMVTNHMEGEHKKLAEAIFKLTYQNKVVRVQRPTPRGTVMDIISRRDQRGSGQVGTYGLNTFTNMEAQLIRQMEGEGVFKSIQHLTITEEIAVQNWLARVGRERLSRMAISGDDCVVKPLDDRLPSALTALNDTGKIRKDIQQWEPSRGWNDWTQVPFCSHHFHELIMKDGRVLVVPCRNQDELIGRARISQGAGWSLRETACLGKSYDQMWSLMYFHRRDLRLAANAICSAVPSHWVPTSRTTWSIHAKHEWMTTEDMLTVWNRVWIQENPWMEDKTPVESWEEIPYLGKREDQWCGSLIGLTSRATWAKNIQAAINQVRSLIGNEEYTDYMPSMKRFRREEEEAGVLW

Compound: CCCN=C1C(=O)C2=C(C(O)=C1C)N1CC3NC3[C@@]1(OC)C2COC(N)=O (stereo partly specified)
EC50 [1]: < 0.06 µM (active) | EC50 [2]: 0.153 µM (active) | CC50 [3]: 1.52 µM (active)

Compound: CCCC[C@@H]1CN=C(S)N1CCc1cccc2ccccc12
CC50 [3]: > 40 µM (active)

Compound: NNC(=O)c1ccc(N2CCc3ccccc32)c([N+](=O)[O-])c1
EC50 [8]: > 195 µM (not active) | CC50 [3]: > 40 µM (active)

Compound: Cc1ccc(NC(=O)CN2C(=O)N/C(=C/c3cc(C)n(-c4ccc(C(=O)O)cc4)c3C)C2=O)cc1
IC50 [9]: 4.55 µM (active) | IC50 [10]: 7.93 µM (active)

Compound: Cn1c(SCC(=O)Nc2nncs2)nnc1C1CC1
IC50 [10]: 4.69 µM (active)

Next, values leading:

IC50 [4]: 10.5 µM (active)
Compound: Cc1ccc(-n2cc(CN3CCN(Cc4nccn4C)CC3)c(-c3cccc(C)c3)n2)cc1

AC50 [5]: 15.8 µM (inconclusive)
Compound: CCCn1c(C)nc2c(N(CCOC)CCOC)nc(C)nc21

IC50 [6]: 35.8 µM (active) | IC50 [7]: 81.9 µM (active)
Compound: Cc1cc(NS(=O)(=O)c2ccc(NC(=O)CSc3nc(O)c4c(C)c(C)sc4n3)cc2)no1

AC50 [5]: 20 µM (inconclusive)
Compound: COCCNC(=O)C1(CC(C)C)C=CCN1C(=O)c1ccccc1 (stereo unspecified)

IC50 [4]: 7.59 µM (active)
Compound: CCCOc1ccc(C(CC(=O)O)NC(=O)c2sc3ccccc3c2Cl)cc1 (stereo unspecified)

IC50 [4]: 20.9 µM (active)
Compound: O=C(CN1C(=O)S/C(=C\c2cccc(Cl)c2)C1=O)NCCCn1ccnc1
